Laboratory results reported in ChEMBL document CHEMBL4619784, “Exploiting Existing Molecular Scaffolds for Long-Term COVID Treatment” (ACS Med Chem Lett, 2020).

Test system: SARS-CoV
Test: Antiviral activity against SARS coronavirus Urbani infected in monkey Vero E6 cells assessed as reduction in virus-induced cytopathogenicity incubated for 48 hrs by CellTiter-Glo luminescent cell viability assay
Assay type: functional, organism-based
Conditions: Severe acute respiratory syndrome-related coronavirus, Vero C1008, 48 h

Work on `Cc1ccc(N)cc1C(=O)N[C@H](C)c1cccc2ccccc12` yielded an EC50 of 10 µM.
